Counter-ions that a name gives are not always drawn.
What was measured:
B16 melanoma cells = experiment: Cytotoxicity assay for murine cancer cells (MTT); type: cell-based; conditions: Mus musculus, 48 h exposure
Description: Murine B16 melanoma cells, Lewis lung carcinoma cells and colon 26 carcinoma cells were grown in DMEM medium containing 2 mM L-glutamine, 10% foetal bovine serum, 100 U/mL penicillin and 100 μg/mL streptomycin (37° C., 5% CO2). […] Exponentially growing cells were plated onto 96-well plates at 5000 cells per well in 100 μL of culture medium. 24 h after plating, 100 μl of medium containing the tested compound at final concentrations ranging from 0.01 to 100 μM were added to the wells (in triplicate) containing the cells, and incubated for 48 h at 37° C. and 5% CO2. After the 48 h exposure period to the test compounds, cell viability was assayed using the MTT (methylthiazoletetrazolium) test (Scudiero et al., Cancer Res. 1988, 48, 4827-4833) and absorbance was read at 562 nm in a microplate reader (BioKinetics Reader, EL340). Appropriate controls with DMEM only and MTT were run to subtract background absorbance.

[1] = tested on: EAhy 926 endothelial cell line; experiment: Endothelial cell morphology evaluation (rounding up); type: cell-based; conditions: Homo sapiens, EA.hy 926; 2 h incubation; rounding up of more than 15% of cells; read-out: Cmarr EA.hy 926: lowest concentration at which cell rounding up was observed
Description: To assess the effects of the compounds on the morphology of endothelial cells, the EAhy 926 endothelial cell line was used, which is derived from the fusion of human umbilical vein endothelial cells (HUVEC) with the permanent human cell line A549 (Edgell et al, Proc. Natl. Acad. Sci. U.S.A., 1983, vol 80, issue 12, 3734-3737). The EAhy 926 cell line is considered as a good representative of native HUVEC because it expresses most of the biochemical markers of parental HUVEC (Bouis et al., Angiogenesis., 2001, 4, 91-102). EAhy 926 cells were grown in DMEM containing 2 mM L-glutamine, 10% foetal bovine serum, 100 U/mL penicillin and 100 μg/mL streptomycin in a humidified atmosphere (37° C., 5% CO2). Exponentially growing EAhy 926 cells were plated onto 96 well plates at 5000 cells/100 μL/well. Twenty-four hours after plating, the medium was aspirated, and 100 μL of medium containing the test compound was added to the well containing the cells (in triplicate) and incubated for 2 h (37° C., 5% CO2). The highest concentration used was 100 μM followed by serial two-fold dilutions down to low nanomolar concentrations, if needed for the most morphologically active compounds. After the 2 h-incubation period, digital photographs were taken of representative centre areas of each well at a magnification of 100× and 200×. The results are presented as the minimum concentration that could elicit the rounding up of more than 15% of cells in a field in order to exclude normal mitotic cells which is less that 15% in control 1% DMSO treated cells. Triplicate concentrations on the same plate were routinely carried out. CA4 was included in the experiments as a positive internal standard.
Compounds of the invention were first tested on EAhy 926 endothelial cells, which are transformed HUVEC (human umbilical vein endothelial cells). These cells undergo a rounding up upon a short 2 hour exposure to vascular disrupting agents, e.g. combretastatin A4.

tubulin = experiment: Tubulin polymerization inhibition assay (DAPI fluorescence); type: biochemical; conditions: for IC50: tubulin 1 mg/ml, DAPI, read-out: IPT (inhibition of tubulin polymerization) IC50; for Inhibition of tubulin polymerization at 30 μM: IC50 ND
Description: Fluorescence was then read at the excitation wavelength of 360 nm and emission of 450 nm.

Row | SMILES | melting point | IC50 (B16 melanoma cells) | minimal effective concentration [1] | IC50 (tubulin) | Inhibition of tubulin polymerization at 30 μM (tubulin)
1 | O=C1CCCc2nc3cc4c(cc3c(Nc3ccc5c(c3)OCO5)c21)OCO4 (as salt: hydrochloride) [SGR 355•HCl, 6,7-(Methylenedioxy)-9-(3,4-methylenedioxyphenyl-amino)-3,4-dihydroacridin-1(2H)-one, hydrochloride] | 260 °C |  |  |  | 
2 | COc1cccc(Nc2c3c(nc4cc5c(cc24)OCO5)CCCC3=O)c1 (as salt: hydrochloride) [SGR 356•HCl, 6,7-(Methylenedioxy)-9-(3-methoxyphenylamino)-3,4-dihydroacridin-1(2H)-one, hydrochloride] | 258 °C |  |  |  | 
3 | COc1cc(Nc2c3c(nc4cc5c(cc24)OCO5)CCC3=O)cc(OC)c1OC (as salt: hydrochloride) [SGR 358•HCl, 6,7-(Methylenedioxy)-9-(3,4,5-trimethoxyphenylamino)-2,3-dihydro-1H-cyclopenta[b]quinolin-1-one, hydrochloride] | 267 °C |  |  |  | 
4 | COc1ccc(Nc2c3c(nc4cc5c(cc24)OCO5)CCC3=O)cc1OC (as salt: hydrochloride) [SGR 359•HCl, 6,7-(Methylenedioxy)-9-(3,4-dimethoxyphenylamino)-2,3-dihydro-1H-cyclopenta[b]quinolin-1-one, hydrochloride] | 256 °C |  |  |  | 
5 | COc1cc(Nc2c3c(nc4cc5c(cc24)OCCO5)CCCC3=O)cc(OC)c1OC (as salt: hydrochloride) [SGR 360•HCl, 6,7-(Ethylenedioxy)-9-(3,4,5-trimethoxyphenylamino)-3,4-dihydroacridin-1(2H)-one, hydrochloride] | 266 °C |  |  |  | 
6 | COc1cc(Nc2c3c(nc4cc5c(cc24)OCCO5)CCCC3=O)cc(OC)c1 (as salt: hydrochloride) [SGR 361•HCl, 6,7-(Ethylenedioxy)-9-(3,5-dimethoxyphenylamino)-3,4-dihydroacridin-1(2H)-one, hydrochloride] | 254 to 255 °C |  |  |  | 
7 | COc1cc(Nc2c3c(nc4cc5c(cc24)OCO5)CCCC3=O)cc(OC)c1 (as salt: hydrochloride) [SGR 363•HCl, 6,7-(Methylenedioxy)-9-(3,5-dimethoxyphenylamino)-3,4-dihydroacridin-1(2H)-one, hydrochloride] | 256 °C |  |  |  | 
8 | COc1cc(Nc2c3c(nc4cc(C)c(C)cc24)CCCC3=O)cc(OC)c1OC (as salt: hydrochloride) [SGR 364•HCl, 6,7-(Dimethyl)-9-(3,4,5-trimethoxyphenylamino)-3,4-dihydroacridin-1(2H)-one, hydrochloride] | 216 °C |  |  |  | 
9 | COc1cc(NC2=C3C(=O)OCC3N(C)c3cc4c(cc32)OCO4)cc(OC)c1OC (stereo not drawn) [SGR 230, reference compound] |  | 38.4 µM | 0.12 µM | 1.04 µM | 
10 | COc1cc(Nc2c3c(nc4cc5c(cc24)OCO5)COC3=O)cc(OC)c1OC [SGR 231, reference compound] |  | 0.4 µM | 1.95 µM | 0.42 µM | 
11 | O=C1CCCc2nc3cc4c(cc3cc21)OCO4 [SGR 304] |  | > 100 µM | > 100 µM |  | ND (33% à 30 μM)
12 | O=C1CCCc2c1cc1cc3c(cc1[n+]2[O-])OCO3 [SGR 305] |  | > 100 µM | > 100 µM |  | ND (22% à 30 μM)
13 | O=C1CCCc2nc3cc4c(cc3c(Cl)c21)OCO4 [SGR 306] |  | > 100 µM | 12.5 µM |  | ND (3% à 30 μM)
14 | COc1cc(Nc2c3c(nc4cc5c(cc24)OCO5)CCCC3O)cc(OC)c1OC (stereo not drawn) [SGR 308] |  | 29.5 µM | 25 µM |  | ND (31% à 30 μM)
15 | COc1cc(Nc2c3c(nc4cc5c(cc24)OCO5)CCC=C3)cc(OC)c1OC [SGR 309] |  | 11 µM | 3.13 µM | 18.2 µM | 
16 | O=C1CCCc2nc3cc4c(cc3c(Nc3ccc5c(c3)OCO5)c21)OCO4 [SGR 355•HCl, 6,7-(Methylenedioxy)-9-(3,4-methylenedioxyphenyl-amino)-3,4-dihydroacridin-1(2H)-one, hydrochloride] |  | 17.4 µM | 100 µM |  | 
17 | COc1cccc(Nc2c3c(nc4cc5c(cc24)OCO5)CCCC3=O)c1 [SGR 356•HCl, 6,7-(Methylenedioxy)-9-(3-methoxyphenylamino)-3,4-dihydroacridin-1(2H)-one, hydrochloride] |  | > 100 µM | 50 µM |  | 
18 | COc1cc(CNc2c3c(nc4cc5c(cc24)OCO5)CCCC3=O)cc(OC)c1OC.Cl [SGR 357•HCl] |  | 8.9 µM | 25 µM |  | ND (18% à 30 μM)
19 | COc1cc(Nc2c3c(nc4cc5c(cc24)OCO5)CCC3=O)cc(OC)c1OC [SGR 358•HCl, 6,7-(Methylenedioxy)-9-(3,4,5-trimethoxyphenylamino)-2,3-dihydro-1H-cyclopenta[b]quinolin-1-one, hydrochloride] |  | 1.01 µM | 0.25 µM |  | 
20 | COc1ccc(Nc2c3c(nc4cc5c(cc24)OCO5)CCC3=O)cc1OC [SGR 359•HCl, 6,7-(Methylenedioxy)-9-(3,4-dimethoxyphenylamino)-2,3-dihydro-1H-cyclopenta[b]quinolin-1-one, hydrochloride] |  | 17.4 µM | 25 µM |  | 
21 | COc1cc(Nc2c3c(nc4cc5c(cc24)OCCO5)CCCC3=O)cc(OC)c1OC [SGR 360•HCl, 6,7-(Ethylenedioxy)-9-(3,4,5-trimethoxyphenylamino)-3,4-dihydroacridin-1(2H)-one, hydrochloride] |  | 8.1 µM | 0.06 µM |  | 
22 | COc1cc(Nc2c3c(nc4cc5c(cc24)OCO5)CCCC3=O)cc(OC)c1 [SGR 363•HCl, 6,7-(Methylenedioxy)-9-(3,5-dimethoxyphenylamino)-3,4-dihydroacridin-1(2H)-one, hydrochloride] |  | 1.4 µM | 0.06 µM |  | 
23 | COc1cc(Nc2c3c(nc4cc(C)c(C)cc24)CCCC3=O)cc(OC)c1OC [SGR 364•HCl, 6,7-(Dimethyl)-9-(3,4,5-trimethoxyphenylamino)-3,4-dihydroacridin-1(2H)-one, hydrochloride] |  | 12.6 µM | 6.25 µM |  | 

Source: patent US9783547B2, “Water soluble 4-azapodophyllotoxin analogs” (CENTRE NATIONAL DE LA RECHERCHE SCIENTIFIQUE (CNRS), priority 2014, dated 2017)
